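48-hour exposure; five concentrations; linearly interpolated endpoints. At the GI50, growth is halved. TGI is the concentration that stops growth completely.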 Where only a bound is given, the exact number is not on record here.

The values that follow come from PubChem BioAssay (NCI).

Some test systems named below: ACHN renal; DU-145 prostate; LOX IMVI melanoma; MOLT-4 leukemia; NCI-H460 lung; NCI-H522 lung; OVCAR-5 ovarian; PC-3 prostate; RXF 393 renal; SF-295 CNS.
Common to all, as to test: NCI anticancer screen, dose series, 48 h

For the compound `CCC1=C(c2ccc(OC)cc2)CC[C@]2(CCNC2=O)[C@@H]1C`, the TGI in the assay on ACHN renal was 66.8 µM; in the assay on DU-145 prostate, above 100 µM; in the assay on LOX IMVI melanoma it was 60.5 µM; in the assay with MOLT-4 leukemia, 39.7 µM; with NCI-H460 lung it was above 85.9 µM; with NCI-H522 lung, 56.3 µM. The TGI in the assay with OVCAR-5 ovarian was above 100 µM; with PC-3 prostate, above 77 µM; with RXF 393 renal, above 100 µM; in the assay on SF-295 CNS it was above 100 µM.
As to `O=C(/C=C/c1cccc(Oc2ccc(Cl)cc2)c1)c1ccccc1`, the GI50 was 16.9 µM in the assay with ACHN renal; 69.7 µM in the assay with DU-145 prostate; 16.9 µM with LOX IMVI melanoma; 30.8 µM in the assay on MOLT-4 leukemia; 60.1 µM in the assay on NCI-H460 lung; 67.1 µM with NCI-H522 lung. The GI50 in the assay on OVCAR-5 ovarian was 26.3 µM; in the assay on PC-3 prostate, 19.7 µM; in the assay on RXF 393 renal, 44.2 µM; in the assay on SF-295 CNS, 60 µM. The TGI in the assay on ACHN renal is 31.7 µM; with DU-145 prostate, 207 µM; in the assay on LOX IMVI melanoma, 33 µM; with NCI-H460 lung it was 208 µM; in the assay with NCI-H522 lung, 246 µM; in the assay on OVCAR-5 ovarian it was 83.6 µM. In addition, the values for the TGI with PC-3 prostate, in the assay on RXF 393 renal and with SF-295 CNS were 37.8 µM, 152 µM and 196 µM, respectively.
For `CCN(CC)Cc1cc(Nc2cc(C(F)(F)F)c(C#N)c3nc4ccccc4n23)ccc1O`, the GI50 in the assay on ACHN renal is 2.24 µM; with DU-145 prostate, 2.78 µM; in the assay with LOX IMVI melanoma it was 2.33 µM; in the assay on MOLT-4 leukemia, 2.46 µM; with NCI-H460 lung it was 1.59 µM; in the assay on NCI-H522 lung it was 1.05 µM. Further, the GI50 in the assay with OVCAR-5 ovarian was 4.84 µM; with PC-3 prostate it was 2.32 µM; with RXF 393 renal, 1.8 µM; in the assay with SF-295 CNS it was 1.2 µM. Further, the TGI in the assay on ACHN renal amounted to 10.3 µM; in the assay with DU-145 prostate, 15.7 µM; with LOX IMVI melanoma, 13.1 µM; with MOLT-4 leukemia, 75 µM; in the assay on NCI-H460 lung it was 10.7 µM; with NCI-H522 lung, 2.74 µM. Further, the TGI was 23.4 µM in the assay on OVCAR-5 ovarian, 7.87 µM with PC-3 prostate, 5.81 µM in the assay with RXF 393 renal and 3.81 µM in the assay with SF-295 CNS.
Take `COC(=O)C1=Nc2ccc(F)cc2/C1=C/c1sc(=S)[nH]c1O`: the GI50 in the assay with ACHN renal was 0.0697 µM; in the assay on DU-145 prostate it was 0.222 µM; in the assay with LOX IMVI melanoma it was 0.0943 µM; in the assay on MOLT-4 leukemia it was 0.236 µM; in the assay on NCI-H460 lung, 0.0804 µM; in the assay on NCI-H522 lung, 0.0363 µM. The GI50 is 0.91 µM with OVCAR-5 ovarian, 0.128 µM in the assay on PC-3 prostate, 0.0762 µM in the assay on RXF 393 renal and 0.125 µM in the assay on SF-295 CNS. Besides, the TGI was 18 µM in the assay on ACHN renal; above 36.2 µM in the assay on DU-145 prostate; above 32.6 µM in the assay on LOX IMVI melanoma; above 100 µM in the assay with MOLT-4 leukemia; 10.1 µM in the assay on NCI-H460 lung; 1.09 µM in the assay on NCI-H522 lung. For the same compound, the TGI in the assay with OVCAR-5 ovarian was above 100 µM; in the assay on PC-3 prostate it was 26.3 µM; in the assay on RXF 393 renal it was 4.1 µM; in the assay on SF-295 CNS, 13.2 µM.
